From patent publication US10253355B2, “Instrument and system for rapid microorganism identification and antimicrobial agent susceptibility testing” (Accelerate Diagnostics, Inc., priority 2015, dated 2019)
Where two headings read alike, the source gives them in different places.

Assays:
[1] = test system: Pseudomonas aeruginosa ATCC 27853; test: AST QC assay on AD-1 instrument, QC isolate P. aeruginosa ATCC 27853; format: cell-based
From the text: (§1) The reportable range for the AST QC assay in some examples are adjusted such that the selected QC isolates have an MIC that is within the reportable range of the QC Assay. These extended ranges are only applied to QC testing and are not applied to AST assessment of patient samples. The process for assigning an MIC value to the QC organisms is the same or similar to that used for patient samples. […] This approach allows testing of, for example, CLSI recommended QC isolates without affecting the algorithms that are optimized around antimicrobial breakpoints. The algorithms used in ID QC or AST QC testing include those described above, for example, when the QC test samples are microbial isolates. For ID QC testing utilizing target microbial nucleic acids coupled to a bead, positive detection is achieved by comparing the cumulative count in the target (e.g., Green fluorescence channel) only against a threshold of objects that have brightness exceeding bead autofluorescence. Negative control detection is achieved by doing the same for eubacteria (e.g., Red fluorescence) channel only. For example, the number of bright red objects should not exceed a threshold in order to pass negative control.
(§2) The results of the identification assay drive antibiotic selection for antimicrobial susceptibility testing. The remaining samples undergo a pre-growth step to normalize growth rates during the approximately 1-hour FISH ID assay. The concentration of organisms in the purified inoculum was determined by repeating the quantitation process with a universal nucleic acid stain as previously described herein. […] Following cell immobilization, antimicrobial solutions in Mueller-Hinton agar were dispensed into the flowcells. Different antimicrobials were tested in separate flowcells, and only a single concentration of each antimicrobial was used. A growth control consisting of Mueller-Hinton agar without any antimicrobial was included for each run. A dark-field microscope and camera produced time-lapse images approximately every 10 minutes of progenitor cells growing into clones of daughter cells in each flowcell. The agar ensured daughter cells were immobilized and remained localized to each growing clone. Resistant clones grew while susceptible clones arrest or lyse over time (FIG. 90).
(§3) Custom image analysis software assigned unique spatial XY coordinates to individual progenitor cells (FIG. 91), allowing each growing clone across a series of time-lapse images to be identified. The intensity of each clone can be used as a metric of clone mass in each image. By measuring over time, this metric was used to generate growth curves for each individual clone (FIG. 92). The pattern of cell responses was used to determine the susceptibility of the overall population. Computer algorithms developed for each organism-antimicrobial combination convert microbial growth response into an MIC value using a mathematical regression model based on the response of isolates with known MICs for a single-concentration of a given antimicrobial. Once obtained, MIC values were interpreted using FDA, CLSI or EUCAST breakpoints along with expert rules to determine the categorical result (susceptible (S), intermediate (I) or resistant (R)). In addition to MICs, this technique was applied to phenotypic resistance mechanism detection.
(§4) In this example, the AST QC consumable insert consisted of 8 wells configured in a “pi” shape, as shown in the dark gray shading in FIG. 109. The AST QC panel was composed of seven CLSI recommended isolates that provide “on-scale” MIC results for all of the antimicrobial agents included in a sample blood culture test. A C. albicans isolate was used for Quality Control assessment of the […] component of the AD-1 Instrument System.
(§5) Table 9 below lists each organism and the corresponding antimicrobial agent that was tested in the AST QC assay. […]

[2] = test system: Pseudomonas aeruginosa ATCC 27853; settings: cited from earlier work; for Expected (MIC acceptance range): P. aeruginosa ATCC 27853; for Organism QC Range (MIC): AST QC panel (Table 9), CLSI recommended isolate P. aeruginosa ATCC 27853
[3] = test system: Enterococcus faecalis ATCC 29212; test: AST QC assay on AD-1 instrument, QC isolate E. faecalis ATCC 29212; format: cell-based; settings: unit assumed
From the text: as §1, §2, §3, §4, §5

[4] = test system: Enterococcus faecalis ATCC 29212; settings: cited from earlier work; for Organism QC Range (MIC): AST QC panel (Table 9), CLSI recommended isolate E. faecalis ATCC 29212; for Expected (MIC acceptance range): E. faecalis ATCC 29212
[5] = test system: Escherichia coli ATCC 25922; test: AST QC assay on AD-1 instrument, QC isolate E. coli ATCC 25922; format: cell-based; settings: unit assumed
From the text: as §1, §2, §3, §4, §5

[6] = test system: Escherichia coli ATCC 25922; settings: in µg/mL (unit assumed), cited from earlier work; for Organism QC Range (MIC): AST QC panel (Table 9), CLSI recommended isolate E. coli ATCC 25922; for Expected (MIC acceptance range): E. coli ATCC 25922
[7] = AST only report (Table 10), in µg/mL (unit assumed)
[8] = ID and AST report (Table 11), in µg/mL (unit assumed)

O=C(O)c1cn(C2CC2)c2cc(N3CCNCC3)c(F)cc2c1=O [Ciprofloxacin]
Result (MIC value) ([1]; AST only report (Table 10)): 0.5 µg/mL
Result (MIC value) ([1]; ID and AST report (Table 11)): 0.5 µg/mL
Expected (MIC acceptance range) [2, 7]: 0.25-1
Expected (MIC acceptance range) [2, 8]: 0.25-1

CC(=O)NC[C@H]1CN(c2ccc(N3CCOCC3)c(F)c2)C(=O)O1 [Linezolid]
Result (MIC value) ([3]; AST only report (Table 10)): 2 µg/mL
Result (MIC value) ([3]; ID and AST report (Table 11)): 2 µg/mL
Organism QC Range (MIC) ([4]; in µg/mL (unit assumed)): 1-4
Expected (MIC acceptance range) [4, 7]: 1-4
Expected (MIC acceptance range) [4, 8]: 1-4

CN(C)c1ccc(O)c2c1C[C@H]1C[C@H]3[C@H](N(C)C)C(O)=C(C(N)=O)C(=O)[C@@]3(O)C(O)=C1C2=O [Minocycline]
Result (MIC value) ([5]; AST only report (Table 10)): 0.5 µg/mL
Result (MIC value) ([5]; ID and AST report (Table 11)): 0.5 µg/mL

CCO/N=C(\C(=O)N[C@@H]1C(=O)N2C(C(=O)[O-])=C(Sc3nc(-c4cc[n+](C)cc4)cs3)CS[C@H]12)c1nsc(N)n1 [Ceftaroline]
Result (MIC value) ([3]; AST only report (Table 10)): 1 µg/mL
Result (MIC value) ([3]; ID and AST report (Table 11)): 1 µg/mL

Colistin
Result (MIC value) ([1]; AST only report (Table 10)): 2 µg/mL
Result (MIC value) ([1]; ID and AST report (Table 11)): 2 µg/mL
Organism QC Range (MIC) ([2]; in µg/mL (unit assumed)): 0.5-4
Expected (MIC acceptance range) ([2]; AST only report (Table 10)): 0.5-4^
Expected (MIC acceptance range) ([2]; ID and AST report (Table 11)): 0.5-4^

C[C@H]1c2cccc(O)c2C(=O)C2=C(O)[C@]3(O)C(=O)C(C(N)=O)=C(O)[C@@H](N(C)C)[C@@H]3[C@@H](O)[C@@H]21 [Doxycycline]
Result (MIC value) ([3]; AST only report (Table 10)): 4 µg/mL
Result (MIC value) ([3]; ID and AST report (Table 11)): 4 µg/mL

C[C@@H](O)[C@H]1C(=O)N2C(C(=O)O)=C(S[C@@H]3CN[C@H](C(=O)N(C)C)C3)[C@H](C)[C@H]12 [Meropenem]
Result (MIC value) ([1]; AST only report (Table 10)): 0.5 µg/mL
Result (MIC value) ([1]; ID and AST report (Table 11)): 0.5 µg/mL
Organism QC Range (MIC) ([2]; in µg/mL (unit assumed)): 0.25-1
Expected (MIC acceptance range) [2, 7]: 0.25-1
Expected (MIC acceptance range) [2, 8]: 0.25-1

C[C@H]1[C@H](NC(=O)/C(=N\OC(C)(C)C(=O)O)c2csc(N)n2)C(=O)N1S(=O)(=O)O [Aztreonam]
Result (MIC value) ([1]; AST only report (Table 10)): 4 µg/mL
Result (MIC value) ([1]; ID and AST report (Table 11)): 4 µg/mL
Organism QC Range (MIC) ([2]; in µg/mL (unit assumed)): 2-8
Expected (MIC acceptance range) [2, 7]: 2-8
Expected (MIC acceptance range) [2, 8]: 2-8

Gentamicin
Result (MIC value) ([1]; AST only report (Table 10)): 1 µg/mL
Result (MIC value) ([1]; ID and AST report (Table 11)): 1 µg/mL
Organism QC Range (MIC) ([2]; in µg/mL (unit assumed)): 0.5-2
Expected (MIC acceptance range) ([2]; AST only report (Table 10)): 0.5-2^
Expected (MIC acceptance range) ([2]; ID and AST report (Table 11)): 0.5-2^

CC(C)(O/N=C(\C(=O)N[C@@H]1C(=O)N2C(C(=O)[O-])=C(C[n+]3ccccc3)CS[C@H]12)c1csc(N)n1)C(=O)O [Ceftazidime]
Organism QC Range (MIC) [6]: 1-4
Expected (MIC acceptance range) ([6]; AST only report (Table 10)): 0.06-0.5
Expected (MIC acceptance range) ([6]; ID and AST report (Table 11)): 0.06-0.5
Result (MIC value) ([5]; AST only report (Table 10)): 0.25 µg/mL
Result (MIC value) ([5]; ID and AST report (Table 11)): 0.25 µg/mL

NC[C@H]1O[C@H](O[C@H]2[C@H](O)[C@@H](O[C@H]3O[C@H](CO)[C@@H](O)[C@H](N)[C@H]3O)[C@H](N)C[C@@H]2N)[C@H](N)C[C@@H]1O [Tobramycin]
Result (MIC value) ([1]; AST only report (Table 10)): 0.5 µg/mL
Result (MIC value) ([1]; ID and AST report (Table 11)): 0.5 µg/mL
Organism QC Range (MIC) ([2]; in µg/mL (unit assumed)): 0.25-1
Expected (MIC acceptance range) [2, 7]: 0.25-1
Expected (MIC acceptance range) [2, 8]: 0.25-1

CO/N=C(\C(=O)N[C@@H]1C(=O)N2C(C(=O)[O-])=C(C[N+]3(C)CCCC3)CS[C@H]12)c1csc(N)n1 [Cefepime]
Result (MIC value) ([1]; AST only report (Table 10)): 2 µg/mL
Result (MIC value) ([1]; ID and AST report (Table 11)): 2 µg/mL
Organism QC Range (MIC) ([2]; in µg/mL (unit assumed)): 0.5-4
Expected (MIC acceptance range) ([2]; AST only report (Table 10)): 0.5-4^
Expected (MIC acceptance range) ([2]; ID and AST report (Table 11)): 0.5-4^

CC1(C)S[C@@H]2[C@H](NC(=O)[C@H](N)c3ccccc3)C(=O)N2[C@H]1C(=O)O [Ampicillin]
Result (MIC value) ([3]; AST only report (Table 10)): 1 µg/mL
Organism QC Range (MIC) ([4]; in µg/mL (unit assumed)): 0.5-2
Expected (MIC acceptance range) ([4]; AST only report (Table 10)): 0.5-2^

CN[C@H](CC(C)C)C(=O)N[C@H]1C(=O)N[C@@H](CC(N)=O)C(=O)N[C@H]2C(=O)N[C@H]3C(=O)N[C@H](C(=O)N[C@H](C(=O)O)c4cc(O)cc(O)c4-c4cc3ccc4O)[C@H](O)c3ccc(c(Cl)c3)Oc3cc2cc(c3O[C@@H]2O[C@H](CO)[C@@H](O)[C@H](O)[C@H]2O[C@H]2C[C@](C)(N)[C@H](O)[C@H](C)O2)Oc2ccc(cc2Cl)[C@H]1O [Vancomycin]
Result (MIC value) ([3]; AST only report (Table 10)): 2 µg/mL
Result (MIC value) ([3]; ID and AST report (Table 11)): 2 µg/mL
Organism QC Range (MIC) ([4]; in µg/mL (unit assumed)): 0.5-2
Expected (MIC acceptance range) [4, 7]: 1-4
Expected (MIC acceptance range) [4, 8]: 1-4

CO/N=C(\C(=O)N[C@@H]1C(=O)N2C(C(=O)O)=C(CSc3nc(=O)c(=O)[nH]n3C)CS[C@H]12)c1csc(N)n1 [Ceftriaxone]
Organism QC Range (MIC) [6]: 0.03-0.12
Expected (MIC acceptance range) ([6]; AST only report (Table 10)): 0.03-0.125
Expected (MIC acceptance range) ([6]; ID and AST report (Table 11)): 0.03-0.125
Result (MIC value) ([5]; AST only report (Table 10)): 0.0525 µg/mL
Result (MIC value) ([5]; ID and AST report (Table 11)): 0.0525 µg/mL

CCCCCCCCCC(=O)N[C@@H](Cc1c[nH]c2ccccc12)C(=O)N[C@H](CC(N)=O)C(=O)N[C@@H](CC(=O)O)C(=O)N[C@@H]1C(=O)NCC(=O)N[C@@H](CCCN)C(=O)N[C@@H](CC(=O)O)C(=O)N[C@H](C)C(=O)N[C@@H](CC(=O)O)C(=O)NCC(=O)N[C@H](CO)C(=O)N[C@@H]([C@H](C)CC(=O)O)C(=O)N[C@@H](CC(=O)c2ccccc2N)C(=O)O[C@@H]1C [Daptomycin]
Result (MIC value) ([3]; AST only report (Table 10)): 2 µg/mL
Result (MIC value) ([3]; ID and AST report (Table 11)): 2 µg/mL
Organism QC Range (MIC) ([4]; in µg/mL (unit assumed)): 1-4
Expected (MIC acceptance range) [4, 7]: 1-4
Expected (MIC acceptance range) [4, 8]: 1-4

C[C@@H](O)[C@H]1C(=O)N2C(C(=O)O)=C(S[C@@H]3CN[C@H](C(=O)Nc4cccc(C(=O)O)c4)C3)[C@H](C)[C@H]12 [Ertapenem]
Result (MIC value) ([1]; AST only report (Table 10)): 4 µg/mL
Result (MIC value) ([1]; ID and AST report (Table 11)): 4 µg/mL
Organism QC Range (MIC) ([2]; in µg/mL (unit assumed)): 2-8
Expected (MIC acceptance range) [2, 7]: 2-8
Expected (MIC acceptance range) [2, 8]: 2-8

Cc1nnc(SCC2=C(C(=O)O)N3C(=O)[C@@H](NC(=O)Cn4cnnn4)[C@H]3SC2)s1 [Cefazolin]
Organism QC Range (MIC) [6]: 1-4
Expected (MIC acceptance range) ([6]; AST only report (Table 10)): 1-4
Result (MIC value) ([5]; AST only report (Table 10)): 2 µg/mL

NCC[C@H](O)C(=O)N[C@@H]1C[C@H](N)[C@@H](O[C@H]2O[C@H](CN)[C@@H](O)[C@H](O)[C@H]2O)[C@H](O)[C@H]1O[C@H]1O[C@H](CO)[C@@H](O)[C@H](N)[C@H]1O [Amikacin]
Result (MIC value) ([1]; AST only report (Table 10)): 2 µg/mL
Result (MIC value) ([1]; ID and AST report (Table 11)): 2 µg/mL
Organism QC Range (MIC) ([2]; in µg/mL (unit assumed)): 1-4
Expected (MIC acceptance range) [2, 7]: 1-4
Expected (MIC acceptance range) [2, 8]: 1-4
